Reference: PubChem BioAssay (NCI)
Where “and” joins values, the source holds several entries; their conditions need not be identical. Equal entries are not always repeated.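 Results reflect a 48-hour exposure of cells in 96-well plates to compound at five concentrations. Abbreviation: GI50, concentration required for 50% inhibition of growth. TGI is the concentration that stops growth completely.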

Key:
Assay in all cases: inhibition of tumour cell growth, NCI panel, 48 h
NCI-H460 lung = test system: NCI-H460 lung
NCI-H522 lung = test system: NCI-H522 lung
NCI/ADR-RES ovarian = test system: NCI/ADR-RES ovarian
OVCAR-3 ovarian = test system: OVCAR-3 ovarian
OVCAR-4 ovarian = test system: OVCAR-4 ovarian
OVCAR-5 ovarian = test system: OVCAR-5 ovarian
OVCAR-8 ovarian = test system: OVCAR-8 ovarian
PC-3 prostate = test system: PC-3 prostate
RPMI-8226 leukemia = test system: RPMI-8226 leukemia
RXF 393 renal = test system: RXF 393 renal
SF-268 CNS = test system: SF-268 CNS
SF-295 CNS = test system: SF-295 CNS
SF-539 CNS = test system: SF-539 CNS
SK-MEL-2 melanoma = test system: SK-MEL-2 melanoma
SK-MEL-28 melanoma = test system: SK-MEL-28 melanoma
SK-MEL-5 melanoma = test system: SK-MEL-5 melanoma
SK-OV-3 ovarian = test system: SK-OV-3 ovarian
SN12C renal = test system: SN12C renal
SNB-19 CNS = test system: SNB-19 CNS
SNB-75 CNS = test system: SNB-75 CNS
SW-620 colon = test system: SW-620 colon
T-47D breast = test system: T-47D breast
TK-10 renal = test system: TK-10 renal
U251 CNS = test system: U251 CNS
UACC-257 melanoma = test system: UACC-257 melanoma
UACC-62 melanoma = test system: UACC-62 melanoma
UO-31 renal = test system: UO-31 renal

For `COCCNCCc1cccc(Nc2ncc3c(n2)-c2ccccc2C(c2ccccc2F)C3)c1` (centres undefined), the GI50 (NCI-H460 lung) was 1.33 µM and 1.7 µM, the TGI (NCI-H460 lung) was 3.08 µM and 3.47 µM and the GI50 (NCI-H522 lung) was 1.53 µM and 1.52 µM. The TGI (NCI-H522 lung) was 2.95 µM, the GI50 (NCI/ADR-RES ovarian) was 1.79 µM and 1.76 µM and the TGI (NCI/ADR-RES ovarian) was 3.43 µM and 3.45 µM. For the same compound, the GI50 (OVCAR-3 ovarian) was 1.76 µM and 1.6 µM, the TGI (OVCAR-3 ovarian) was 3.48 µM and 3.1 µM and the GI50 (OVCAR-4 ovarian) was 1.34 µM and 1.72 µM. For the same compound, the TGI (OVCAR-4 ovarian) was 2.74 µM and 3.18 µM, the GI50 (OVCAR-5 ovarian) was 1.42 µM and 1.57 µM and the TGI (OVCAR-5 ovarian) was 2.76 µM and 3.02 µM. The GI50 (OVCAR-8 ovarian) was 1.79 µM and 1.87 µM, the TGI (OVCAR-8 ovarian) was 3.38 µM and 3.9 µM and the GI50 (PC-3 prostate) was 1.49 µM and 1.39 µM. The TGI (PC-3 prostate) was 2.89 µM and 2.86 µM, the GI50 (RPMI-8226 leukemia) was 1.52 µM and 1.74 µM and the TGI (RPMI-8226 leukemia) was 3.7 µM and 4.23 µM. For the same compound, the GI50 (RXF 393 renal) was 1.11 µM and 1.24 µM, the TGI (RXF 393 renal) was 2.39 µM and 2.59 µM and the GI50 (SF-268 CNS) was 1.44 µM and 1.64 µM. The TGI (SF-268 CNS) was 3.07 µM and 3.19 µM, the GI50 (SF-295 CNS) was 1.72 µM and 1.61 µM and the TGI (SF-295 CNS) was 3.11 µM and 2.99 µM. The GI50 (SF-539 CNS) was 1.32 µM and 1.5 µM, the TGI (SF-539 CNS) was 2.62 µM and 2.86 µM and the GI50 (SK-MEL-2 melanoma) was 1.71 µM and 1.94 µM. For the same compound, the TGI (SK-MEL-2 melanoma) was 3.19 µM and 3.44 µM, the GI50 (SK-MEL-28 melanoma) was 1.6 µM and 1.76 µM and the TGI (SK-MEL-28 melanoma) was 2.97 µM and 3.18 µM. For the same compound, the GI50 (SK-MEL-5 melanoma) was 1.65 µM, the TGI (SK-MEL-5 melanoma) was 3.04 µM and 3.03 µM and the GI50 (SK-OV-3 ovarian) was 1.71 µM and 2.45 µM. The TGI (SK-OV-3 ovarian) was 3.14 µM and 6.34 µM, the GI50 (SN12C renal) was 1.32 µM and 1.04 µM and the TGI (SN12C renal) was 2.7 µM and 2.34 µM. The GI50 (SNB-19 CNS) was 1.75 µM and 1.81 µM, the TGI (SNB-19 CNS) was 3.18 µM and 3.28 µM and the GI50 (SNB-75 CNS) was 1.17 µM and 0.727 µM. The TGI (SNB-75 CNS) was 2.48 µM and 2.09 µM, the GI50 (SW-620 colon) was 2.4 µM and the TGI (SW-620 colon) was 4.63 µM. The GI50 (T-47D breast) was 1.76 µM and 1.82 µM, the TGI (T-47D breast) was 3.6 µM and 3.92 µM and the GI50 (TK-10 renal) was 1.38 µM and 1.6 µM. For the same compound, the TGI (TK-10 renal) was 2.74 µM and 2.98 µM, the GI50 (U251 CNS) was 1.24 µM and 1.82 µM and the TGI (U251 CNS) was 2.57 µM and 3.28 µM. For the same compound, the GI50 (UACC-257 melanoma) was 2.01 µM and 2.15 µM, the TGI (UACC-257 melanoma) was 3.54 µM and 4.05 µM and the GI50 (UACC-62 melanoma) was 1.72 µM and 1.76 µM. The TGI (UACC-62 melanoma) was 3.12 µM and 3.16 µM, the GI50 (UO-31 renal) was 0.685 µM and 1.29 µM and the TGI (UO-31 renal) was 2.06 µM and 2.57 µM.
